Data from patent US20230174649A1, “PHARMACEUTICAL COMPOSITIONS CONTAINING ANTI-CD47 ANTIBODIES” (I-MAB BIOPHARMA US LIMITED, priority 2020, published 2023).
Several values for one entry are separate records, joined by “and”; a condition that tells them apart may be missing. Equal entries are not always repeated.

Tested on: macrophages
Experiment: Macrophage Viability Assay (CellTiter-Glo)
Assay type: cell-based, Human
Details: for Macrophage viability (CellTiter-Glo Luminescent Cell Viability Assay): 16 hours, three replicate lines
Protocol: Then, the monocytes isolated by MACS were subsequently cultured in fresh complete medium supplemented with recombinant human granulocyte-macrophage colony-stimulating factor GM-CSF (50 ng/ml) and human recombinant IL-4 (35 ng/ml) to activate differentiated macrophages. After 6 days of culture (on day 7), cells were harvested, pooled together and counted for next use.
The cells from Example 2 were plated into a 96-well flat bottom plate at a density of 0.05×10^6 cells/well. After 2 hours of incubation, the macrophages were well attached to the plate. Then selected small molecule therapeutic agents were added to the well and cocultured for 16 hours. On day 8, macrophage viability was assessed by CellTiter-Glo® Luminescent Cell Viability Assay, according to the manufacture's instruction.

Nc1ncn([C@@H]2O[C@H](CO)[C@@H](O)[C@H]2O)c(=O)n1 [Azacitidine]
Macrophage viability (CellTiter-Glo Luminescent Cell Viability Assay) (Cpd 0.002 uM): 4076 and 6020 and 5860
Macrophage viability (CellTiter-Glo Luminescent Cell Viability Assay) (Cpd 0.008 uM): 4648 and 6100 and 6132
Macrophage viability (CellTiter-Glo Luminescent Cell Viability Assay) (Cpd 0.04 uM): 4792 and 5892 and 6380
Macrophage viability (CellTiter-Glo Luminescent Cell Viability Assay) (Cpd 0.2 uM): 5160 and 6136 and 6440
Macrophage viability (CellTiter-Glo Luminescent Cell Viability Assay) (Cpd 1 uM): 5140 and 6108 and 6256
Macrophage viability (CellTiter-Glo Luminescent Cell Viability Assay) (Cpd 5 uM): 4768 and 6132 and 6032
Macrophage viability (CellTiter-Glo Luminescent Cell Viability Assay) (Cpd 25 uM): 4560 and 5520 and 5324
Macrophage viability (CellTiter-Glo Luminescent Cell Viability Assay) (Cpd 50 uM): 4580 and 5420 and 4932
toxicity to macrophages (dose as high as 50 μM): showed toxicity
toxicity to macrophages (dose lower than 10 μM): little toxic
